Measurements: patent US20070287738A1, “Substituted Cyanopyridines as protein kinase inhibitors” (priority 2006, published 2007)

Tests used:
Type in all cases: biochemical
[1] = target: T1, purified recombinant active kinase domain of full length PKC theta (amino acids 362-706) (Homo sapiens, UniProt Q04759); experiment: Radioactive kinase assay for inhibition of the active kinase domain (KD) of PKCθ; conditions: radioactive (ATP γ P33) assay, average value
T1 construct: active kinase domain of full length PKC theta (amino acids 362-706)
Experimental: A Radioactive Kinase Assay for Inhibition of the Active Kinase Domain (KD) of PKCθ
(§1) This assay is based on the phosphorylation of a biotinylated substrate by a kinase utilizing radiolabeled ATP (ATP γ P33). The substrate was a biotinylated peptide with a sequence of biotin-FARKGSLRQ-C(O)NH2. The enzyme was purified recombinant active kinase domain of full length PKC theta (amino acids 362-706). The assay buffer was composed of 100 mM Hepes, pH7.5, 2 mM MgCl2, 20 mM β-glycerophosphate and 0.008% TritonX 100. A reaction mixture of ATP, ATP γ P33 (PerkinElmer), DTT, and the enzyme was prepared in the assay buffer and added to a 96-well polypropylene plate. The compound (diluted in DMSO in a separate 96-well polypropylene plate) was added to the reaction mixture and incubated at room temperature. Following the incubation, the peptide substrate was added to the reaction mixture to initiate the enzymatic reaction. The reaction was terminated with the addition of a stop solution (100 mM EDTA, 0.2% TritonX100, and 20 mM NaHPO4) and transferred from the assay plate to a washed streptavidin-coated 96-well scintiplate (PerkinElmer). The scintiplate was incubated at room temperature, washed in PBS with 0.1% TritonX 100, and counted in the 1450 Microbeta Trilux (Wallac, Version 2.60). Counts were recorded for each well as corrected counts per minute (CCPM). The counts were considered corrected because they were adjusted according to a P33 normalization protocol, which corrects for efficiency and background differences between the instrument detectors (software version 4.40.01).

[2] = target: T2, purified recombinant full length PKC theta (Panvera, P2996) (Homo sapiens, UniProt Q04759); experiment: Radioactive kinase assay for inhibition of full length (FL) PKCθ; conditions: full length enzyme; radioactive (ATP γ P33) assay; average value
T2 construct: purified recombinant full length PKC theta (Panvera, P2996); purchased Panvera P2996
Experimental: as §1
A Radioactive Kinase Assay for Inhibition of Full Length (FL) PKCθ Inhibitors
This assay differs from what was described above in that the enzyme used was purified recombinant full length PKC theta (Panvera, P2996).

[3] = target: T3, human PKCθ full length enzyme (Homo sapiens, UniProt Q04759); experiment: PKCθ IMAP assay; conditions: full length enzyme 1 nM; ATP 6 μM; peptide 100 nM; FP readout; average value
T3 construct: human PKCθ full length enzyme (Panvera Cat# P2996); purchased Panvera P2996
Experimental: The materials used include the following: human PKCθ full length enzyme (Panvera Cat# P2996); substrate peptide: 5FAM-RFARKGSLRQKNV-OH (Molecular Devices, RP7032); ATP (Sigma Cat # A2383); DTT (Pierce, 20291); 5× kinase reaction buffer (Molecular Devices, R7209); 5× binding buffer A (Molecular Devices, R7282), 5× binding buffer B (Molecular Devices, R7209); IMAP Beads (Molecular Devices, R7284); and 384-well plates (Corning Costar, 3710).
The reaction buffer was prepared by diluting the 5× stock reaction buffer and adding DTT to obtain a concentration of 3.0 mM. The binding buffer was prepared by diluting the 5× binding buffer A. A master mix solution was prepared using a 90% dilution of the reaction buffer containing 2× ATP (12 uM) and 2× peptide (200 nm). Compounds were diluted in DMSO to 20× of the maximum concentration for the IC50 measurement. 27 μl of the master mix solution for each IC50 curve was added to the first column in a 384-well plate and 3 μl of 20× compound in DMSO was added to each well. The final concentration of compound was 2× and 10% DMSO. DMSO was added to the rest of the master mix to increase the concentration to 10%. 10 μl of the master mix containing 10% DMSO was added to the rest of the wells on the plate except the 2nd column. 20 μl was transferred from the first column to the 2nd column.
The compounds were serially diluted in 2:1 ratio starting from the 2nd column. A 2× (2 nM) PKCθ solution was made in the reaction buffer. 10 μl of the PKCθ solution was added to every well to achieve these final concentrations: PKCθ—1 nM; ATP—6 μM; peptide—100 nM; DMSO—5%. Samples were incubated for 25 minutes at room temperature. The binding reagent was prepared by diluting the beads in 1× binding buffer to 800:1. 50 μl of the binding reagent was added to every well and incubated for 20 minutes. FP was measured using Envision2100 (PerkinElmer Life Sciences). Wells with no ATPs and wells with no enzymes were used as controls.

T1 sequence (Q04759 362-706): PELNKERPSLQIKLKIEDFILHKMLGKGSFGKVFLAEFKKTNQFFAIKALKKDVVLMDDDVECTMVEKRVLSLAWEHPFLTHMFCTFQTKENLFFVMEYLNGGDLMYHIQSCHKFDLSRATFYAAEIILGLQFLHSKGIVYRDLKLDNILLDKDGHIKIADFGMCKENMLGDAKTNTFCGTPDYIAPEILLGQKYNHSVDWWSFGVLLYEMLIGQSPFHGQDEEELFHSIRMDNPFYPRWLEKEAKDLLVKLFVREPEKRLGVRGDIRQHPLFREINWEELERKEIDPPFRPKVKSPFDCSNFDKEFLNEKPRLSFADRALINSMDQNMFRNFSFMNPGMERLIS
T2 sequence (Q04759 whole entry): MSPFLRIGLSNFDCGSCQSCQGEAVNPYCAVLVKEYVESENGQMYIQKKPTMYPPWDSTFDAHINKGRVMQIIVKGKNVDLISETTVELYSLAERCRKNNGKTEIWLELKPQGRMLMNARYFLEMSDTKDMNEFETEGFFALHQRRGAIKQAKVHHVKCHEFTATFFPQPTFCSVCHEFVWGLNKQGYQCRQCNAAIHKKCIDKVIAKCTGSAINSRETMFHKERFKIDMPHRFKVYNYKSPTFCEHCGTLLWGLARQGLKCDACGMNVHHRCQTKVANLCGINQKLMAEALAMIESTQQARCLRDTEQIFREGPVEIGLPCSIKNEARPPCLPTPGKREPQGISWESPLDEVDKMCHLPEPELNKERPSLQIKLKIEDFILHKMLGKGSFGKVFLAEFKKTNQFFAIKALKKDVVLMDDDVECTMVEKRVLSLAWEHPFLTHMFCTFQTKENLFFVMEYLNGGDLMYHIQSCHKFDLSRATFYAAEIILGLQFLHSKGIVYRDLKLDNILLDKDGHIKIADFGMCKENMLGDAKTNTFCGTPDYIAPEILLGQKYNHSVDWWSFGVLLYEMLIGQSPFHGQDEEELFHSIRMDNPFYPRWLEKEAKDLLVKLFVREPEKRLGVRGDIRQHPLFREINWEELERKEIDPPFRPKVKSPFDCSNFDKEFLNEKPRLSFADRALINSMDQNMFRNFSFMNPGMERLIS
T3 sequence (Q04759 whole entry): as above

Row | IC50 [1] | IC50 [2] | IC50 [3] | Compound
1 | 4260 nM | 380 nM |  | COc1ccc(-c2cncc(C#N)c2Nc2ccc(Cl)c(Cl)c2)cc1OC [Compound 115, 4-[(3,4-dichlorophenyl)amino]-5-(3,4-dimethoxyphenyl)nicotinonitrile]
2 | 190 nM | 160 nM | 180 nM | COc1cc(Nc2c(C#N)cncc2-c2ccc(OC)c(OC)c2)c(Cl)cc1Cl [Compound 137, 4-[(2,4-dichloro-5-methoxyphenyl)amino]-5-(3,4-dimethoxyphenyl)nicotinonitrile]
